Experimental data taken from patent US10501441B2, “Substituted imidazolylcarboxamides as pesticides” (BAYER CROPSCIENCE AKTIENGESELLSCHAFT, priority 2016, dated 2019).
Where two headings read alike, the source gives them in different places. One block for each molecule: values may come before it.

What was measured:
[1] = log P by reversed-phase HPLC (C18), EEC directive 79/831 Annex V.A8, neutral range; assay type: physicochemical; settings: pH 7.8; for chromatographic logP: reversed-phase HPLC column (C18), read-out: Logp [n]
Description: a) The log P values reported in the tables and preparation examples above were determined in accordance with EEC directive 79/831 Annex V.A8 by HPLC (High Performance Liquid Chromatography) using a reversed-phase column (C18). Temperature 43° C. The calibration is effected with unbranched alkan-2-ones (having 3 to 16 carbon atoms), for which the log P values are known. […] The log P values for the acidic range (as log P [a]) and/or for the neutral range (as log P [n]) were stated in the tables and preparation examples above.

Myzus persicae [2] = experiment: Myzus persicae - oral test (MYZUPE O); assay type: in vivo; settings: for efficacy (aphids killed) / pest or weed control at 20 ppm: 20 ppm, after 5 days; for pest or weed control at 20 ppm / Emax at 0.8 ppm / Emax at 4 ppm: Myzus persicae, po, 120 h; for pest or weed control at 20 ppm: read-out: efficacy (aphids killed); for Emax at 0.8 ppm / Emax at 4 ppm: MYZUPE O, 5 dat, read-out: % efficacy
Description: Solvent: 100 parts by weight of acetone
50 μl of the active compound preparation are transferred into microtitre plates and made up to a final volume of 200 μl with 150 μl of IPL41 insect medium (33%+15% sugar). Subsequently, the plates are sealed with parafilm, which a mixed population of green peach aphids (Myzus persicae) within a second microtitre plate is able to puncture and imbibe the solution through it.
After 5 days, the efficacy in % is determined. 100% means that all the aphids have been killed; 0% means that no aphids have been killed.
Myzus persicae—Oral Test (MYZUPE O)
(§1) After the desired period of time (dat), the efficacy in % is determined. 100% means that all the aphids have been killed; 0% means that no aphids have been killed.

Myzus persicae [3] = experiment: Myzus persicae - spray test (MYZUPE); assay type: in vivo; settings: for efficacy (aphids killed) / pest or weed control at 500 g/ha: 500 g/ha, Chinese cabbage leaf discs, after 5-6 days; for Emax at 100 g/ha / pest or weed control at 500 g/ha: Myzus persicae; for Emax at 100 g/ha: MYZUPE, 100 g of ai/ha, read-out: % efficacy; for pest or weed control at 500 g/ha: foliar, read-out: efficacy (aphids killed)
Description: Myzus persicae—Spray Test
Solvents: 78 parts by weight of acetone • • 1.5 parts by weight of dimethylformamide
(§2) Emulsifier: alkylaryl polyglycol ether
After 5-6 days, the efficacy in % is determined. 100% means that all the aphids have been killed; 0% means that no aphids have been killed.
Myzus persicae—Spray Test (MYZUPE)
(§3) Solvents: 78.0 parts by weight of acetone • • 1.5 parts by weight of dimethylformamide
as §1

Tetranychus urticae = Tetranychus urticae - spray test, OP-resistant (TETRUR); assay type: in vivo; settings: for efficacy (spider mites killed): 500 g/ha, bean leaf discs, after 6 days; for Emax at 500 g/ha: Tetranychus urticae, 144 h, TETRUR, 6 dat, read-out: % efficacy
Description: Tetranychus urticae—Spray Test, OP-Resistant
as §3, §2
After 6 days, the efficacy in % is determined. 100% means that all the spider mites have been killed; 0% means that no spider mites have been killed.
Tetranychus urticae—Spray Test; OP Resistant (TETRUR)
After the desired period of time (dat), the efficacy in % is determined. 100% means that all the spider mites have been killed; 0% means that none of the spider mites have been killed.

Boophilus microplus = Boophilus microplus - injection test; assay type: in vivo; settings: 20 μg/animal, engorged adult female cattle ticks, after 7 days
Description: Boophilus microplus—Injection Test
Solvent: dimethyl sulphoxide
To produce a suitable preparation of active compound, 10 mg of active compound are mixed with 0.5 ml of solvent and the concentrate is diluted with solvent to the desired concentration.
1 μl of the active compound solution is injected into the abdomen of 5 engorged adult female cattle ticks (Boophilus microplus). The animals are transferred into dishes and kept in a climate-controlled room.
Efficacy is assessed after 7 days by laying of fertile eggs. Eggs which are not visibly fertile are stored in a climate-controlled cabinet until the larvae hatch after about 42 days. An efficacy of 100% means that none of the ticks has laid any fertile eggs; 0% means that all the eggs are fertile.

[4] = neutral range, HPLC C18, 43° C.

Logp [n] [1, 4]: 1.18
Compound: Cc1ccn(-c2ncc(C(=O)N(C)c3cccnc3)n2C)n1 [I-1-024]

Logp [n] [1, 4]: 1.57
Compound: CSc1ccn(-c2ncc(C(=O)N(C)c3cccnc3)n2C)n1 [I-1-012]
efficacy (aphids killed) (Myzus persicae [2]): 100% | efficacy (aphids killed) (Myzus persicae [3]): 90%

Logp [n] [1, 4]: 1.14
Compound: CN(C(=O)c1cnc(-n2cc(C#N)cn2)n1C)c1cccnc1 [I-1-008]
efficacy (aphids killed) (Myzus persicae [2]): 100% | efficacy (aphids killed) (Myzus persicae [3]): 100%

Compound: CN(C(=O)c1cnc(N2CCCC2)n1C)c1cccnc1 [I-1-019]
efficacy (aphids killed) (Myzus persicae [2]): 100% | Logp [n] [1]: 1.19 | efficacy (aphids killed) (Myzus persicae [3]): 100%

chromatographic logP [1, 4]: 0.85
Compound: CN(C(=O)c1cnc(N2CCOCC2)n1C)c1cccnc1 [I-1-009, N,1-Dimethyl-2-(morpholin-4-yl)-N-(pyridin-3-yl)-1H-imidazole-5-carboxamide]
pest or weed control at 20 ppm (Myzus persicae [2]): 100% | Emax at 0.8 ppm (Myzus persicae [2]): 70% | efficacy (spider mites killed) (Tetranychus urticae): 90% | Emax at 500 g/ha (Tetranychus urticae): 90% | Emax at 100 g/ha (Myzus persicae [3]; 144 h, 6 dat): 70% | pest or weed control at 500 g/ha (Myzus persicae [3]): 100%

Logp [n] [1, 4]: 1.01
Compound: CN(C(=O)c1cnc(-n2cccn2)n1C)c1cccnc1 [I-1-002]
efficacy (aphids killed) (Myzus persicae [2]): 100% | efficacy (aphids killed) (Myzus persicae [3]): 90%

Logp [n] [1, 4]: 1.84
Compound: CC(C)c1cnn(-c2ncc(C(=O)N(C)c3cccnc3)n2C)c1 [I-1-030]

Logp [n] [1, 4]: 1.53
Compound: CCN(C(=O)c1cnc(-n2ccc(C#N)n2)n1C)c1cccnc1 [I-1-029]

Compound: CCN(C(=O)c1cnc(-n2cc(C#N)cn2)n1C)c1cccnc1 [I-1-015]
pest or weed control at 20 ppm (Myzus persicae [2]): 100% | Emax at 0.8 ppm (Myzus persicae [2]): 100% | Emax at 4 ppm (Myzus persicae [2]): 100% | chromatographic logP [1, 4]: 1.42 | efficacy (spider mites killed) (Tetranychus urticae): 90% | Emax at 500 g/ha (Tetranychus urticae): 90% | pest or weed control at 500 g/ha (Myzus persicae [3]): 90%

Logp [n] [1, 4]: 1.22
Compound: CN(C(=O)c1cnc(-n2cnc(C#N)n2)n1C)c1cccnc1 [I-1-031]
efficacy (laying of fertile eggs) (Boophilus microplus): 80%

Logp [n] [1, 4]: 1.17
Compound: CN(C(=O)c1cnc(-n2cnc(Cl)n2)n1C)c1cccnc1 [I-1-026]

Compound: O=C(Nc1cccnc1)c1c[nH]cn1 [Ex. No. 13 WO2011/009804, reference compound]
Emax at 0.8 ppm (Myzus persicae [2]): 0% | Emax at 4 ppm (Myzus persicae [2]): 0% | Emax at 500 g/ha (Tetranychus urticae): 0% | Emax at 100 g/ha (Myzus persicae [3]; 144 h, 6 dat): 0%

chromatographic logP [1, 4]: 1.48
Compound: CN(C(=O)c1cnc(-n2ccc(Cl)n2)n1C)c1cccnc1 [I-1-004]
pest or weed control at 20 ppm (Myzus persicae [2]): 100% | Emax at 0.8 ppm (Myzus persicae [2]): 100% | Emax at 4 ppm (Myzus persicae [2]): 100% | Emax at 100 g/ha (Myzus persicae [3]; 144 h, 6 dat): 90% | pest or weed control at 500 g/ha (Myzus persicae [3]): 100%

Compound: Cc1nc(C(=O)Nc2cccnc2)c[nH]1 [Ex. No. 14 WO2011/009804, reference compound]
Emax at 0.8 ppm (Myzus persicae [2]): 0% | Emax at 4 ppm (Myzus persicae [2]): 0% | Emax at 500 g/ha (Tetranychus urticae): 0% | Emax at 100 g/ha (Myzus persicae [3]; 5/6 dat): 0%

Logp [n] [1, 4]: 1.49
Compound: CN(C(=O)c1cnc(-n2cc(Cl)cn2)n1C)c1cccnc1 [I-1-005]
efficacy (aphids killed) (Myzus persicae [2]): 100% | efficacy (aphids killed) (Myzus persicae [3]): 90%

Compound: COc1ncn(-c2ncc(C(=O)N(C)c3cccnc3)n2C)n1 [I-1-011]
Emax at 0.8 ppm (Myzus persicae [2]): 90% | Emax at 4 ppm (Myzus persicae [2]): 90% | Emax at 100 g/ha (Myzus persicae [3]; 120 h, 5 dat): 70%

Logp [n] [1, 4]: 2.09
Compound: CCN(C(=O)c1cnc(-n2cc(C(F)(F)F)cn2)n1C)c1cccnc1 [I-1-014]
efficacy (aphids killed) (Myzus persicae [2]): 100% | efficacy (aphids killed) (Myzus persicae [3]): 90%

Logp [n] [1, 4]: 1.27
Compound: CSc1ncn(-c2ncc(C(=O)N(C)c3cccnc3)n2C)n1 [I-1-011]
efficacy (aphids killed) (Myzus persicae [2]): 100% | efficacy (aphids killed) (Myzus persicae [3]): 100%

Compound: CN(C(=O)c1cnc(N2CCC(c3ccccc3)CC2)n1C)c1cccnc1 [I-1-018]
efficacy (aphids killed) (Myzus persicae [2]): 100% | Logp [n] [1, 4]: 2.38 | efficacy (aphids killed) (Myzus persicae [3]): 100%

Compound: CN(C(=O)c1cnc(N2CCCCC2)n1C)c1cccnc1 [I-1-013]
efficacy (aphids killed) (Myzus persicae [2]): 100% | Logp [n] [1, 4]: 1.53 | efficacy (aphids killed) (Myzus persicae [3]): 100%

Logp [n] [1, 4]: 2.21
Compound: CC1CC(C)CN(c2ncc(C(=O)N(C)c3cccnc3)n2C)C1 (centres unmarked) [I-1-020]
efficacy (aphids killed) (Myzus persicae [2]): 100% | efficacy (aphids killed) (Myzus persicae [3]): 100%

Logp [n] [1, 4]: 1.29
Compound: Cc1cnn(-c2ncc(C(=O)N(C)c3cccnc3)n2C)c1 [I-1-021]
efficacy (aphids killed) (Myzus persicae [2]): 100% | efficacy (aphids killed) (Myzus persicae [3]): 100%

Logp [n] [1, 4]: 1.5
Compound: CN(C(=O)c1cnc(-n2cc3c(n2)CCC3)n1C)c1cccnc1 [I-1-027]

chromatographic logP [1, 4]: 1.82
Compound: CN(C(=O)c1cnc(-n2cc(C(F)(F)F)cn2)n1C)c1cccnc1 [I-1-006]
pest or weed control at 20 ppm (Myzus persicae [2]): 100% | Emax at 0.8 ppm (Myzus persicae [2]): 100% | Emax at 100 g/ha (Myzus persicae [3]; 144 h, 6 dat): 100% | pest or weed control at 500 g/ha (Myzus persicae [3]): 100%

Logp [n] [1, 4]: 0.78
Compound: CN(C(=O)c1cnc(-n2ncc(C#N)c2N)n1C)c1cccnc1 [I-1-028]

chromatographic logP [1, 4]: 1.16
Compound: CN(C(=O)c1cnc(N2CCC(C#N)CC2)n1C)c1cccnc1 [I-1-017]
pest or weed control at 20 ppm (Myzus persicae [2]): 100% | Emax at 0.8 ppm (Myzus persicae [2]): 100% | Emax at 4 ppm (Myzus persicae [2]): 100% | Emax at 100 g/ha (Myzus persicae [3]; 120 h, 5 dat): 90% | pest or weed control at 500 g/ha (Myzus persicae [3]): 100%

chromatographic logP [1, 4]: 1.27
Compound: CN(C(=O)c1cnc(-n2cccc2)n1C)c1cccnc1 [I-1-001]
pest or weed control at 20 ppm (Myzus persicae [2]): 100% | Emax at 0.8 ppm (Myzus persicae [2]): 100% | Emax at 4 ppm (Myzus persicae [2]): 100% | Emax at 100 g/ha (Myzus persicae [3]; 144 h, 6 dat): 90% | pest or weed control at 500 g/ha (Myzus persicae [3]): 90%

Logp [n] [1, 4]: 1.87
Compound: CC1CCN(c2ncc(C(=O)N(C)c3cccnc3)n2C)CC1 [I-1-016]
efficacy (aphids killed) (Myzus persicae [2]): 100% | efficacy (aphids killed) (Myzus persicae [3]): 90%

chromatographic logP [1, 4]: 1.38
Compound: CN(C(=O)c1cnc(-n2cnc(C(F)(F)F)c2)n1C)c1cccnc1 [I-1-010]
pest or weed control at 20 ppm (Myzus persicae [2]): 100% | Emax at 0.8 ppm (Myzus persicae [2]): 100% | Emax at 4 ppm (Myzus persicae [2]): 100% | Emax at 100 g/ha (Myzus persicae [3]; 144 h, 6 dat): 70% | pest or weed control at 500 g/ha (Myzus persicae [3]): 100%

Logp [n] [1, 4]: 1.31
Compound: CN(C(=O)c1cnc(-n2ccc(C#N)n2)n1C)c1cccnc1 [I-1-003]
efficacy (aphids killed) (Myzus persicae [2]): 100% | efficacy (aphids killed) (Myzus persicae [3]): 90%

chromatographic logP [1, 4]: 1.87
Compound: CN(C(=O)c1cnc(-n2ccc(C(F)(F)F)n2)n1C)c1cccnc1 [I-1-007, N,1-dimethyl-N-(pyridin-3-yl)-2-[3-(trifluoromethyl)-1H-pyrazol-1-yl]-1H-imidazole-5-carboxamide]
pest or weed control at 20 ppm (Myzus persicae [2]): 100% | pest or weed control at 500 g/ha (Myzus persicae [3]): 100%

Compound: CN(C(=O)c1cnc(-n2ccnc2)n1C)c1cccnc1 [I-1-025]
Logp [n] [1]: 0.56

Logp [n] [1, 4]: 1.42
Compound: Cc1cn(-c2ncc(C(=O)N(C)c3cccnc3)n2C)nc1C [I-1-023]

chromatographic logP [1, 4]: 0.88
Compound: CN(C(=O)c1cnc(Cl)n1C)c1cccnc1 [2-Chloro-N, 1-dimethyl-N-(pyridin-3-yl)-1H-imidazole-5-carboxamide]
